From paper PMC10658973, “Thiazolopyrimidine derivatives as novel class of small molecule tyrosinase inhibitor” (BMC Chemistry, 2023)
“Also recorded” adds a separate entry of the source. Like-named read-outs stand apart in the source and are kept apart here.

Experiments:
tyrosinase [1] = conditions: previously reported, cited from earlier work
[2] = target: tyrosinase (EC 1.14.18.1) (Agaricus bisporus, UniProt C7FF04); assay: Tyrosinase inhibitory assay (L-Dopa oxidation); type: biochemical; conditions: for IC50: tyrosinase, L-Dopa substrate, mean of three independent experiments
tyrosinase (EC 1.14.18.1), sequence (C7FF04 1-392): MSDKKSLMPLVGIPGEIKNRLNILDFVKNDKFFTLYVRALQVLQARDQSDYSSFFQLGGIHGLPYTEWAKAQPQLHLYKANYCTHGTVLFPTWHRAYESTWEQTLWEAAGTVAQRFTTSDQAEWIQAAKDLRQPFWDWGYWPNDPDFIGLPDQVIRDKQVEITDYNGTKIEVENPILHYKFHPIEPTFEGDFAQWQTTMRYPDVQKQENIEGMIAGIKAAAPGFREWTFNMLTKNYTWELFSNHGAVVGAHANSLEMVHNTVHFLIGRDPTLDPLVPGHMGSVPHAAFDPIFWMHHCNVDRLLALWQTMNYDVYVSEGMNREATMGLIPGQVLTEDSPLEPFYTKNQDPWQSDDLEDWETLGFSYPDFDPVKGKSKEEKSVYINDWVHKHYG

tyrosinase [3] = assay: Enzyme kinetic studies (Lineweaver-Burk, L-Dopa substrate); type: biochemical
Text: The Lineweaver–Burk reciprocal plot was provided by plotting 1/V against 1/[S] at variable concentrations of the L-Dopa.

tyrosinase [4] = assay: UV/VIS spectra of tyrosinase with L-Dopa and inhibitor; type: biochemical; conditions: 475 nm, L-Dopa + tyrosinase, various concentrations of inhibitor
Description: UV spectra of compound 6a, tyrosinase and L-Dopa were analyzed separately. […] However, when L-Dopa was added to tyrosinase without an inhibitor, the highest absorbance was observed, confirming the generation of dopachrome.

hTYR = test system: hTYR; design: method as in PMID 29427586; conditions: previously reported; cited from earlier work
mTYR = test system: mTYR; design: method as in PMID 29427586; conditions: previously reported; cited from earlier work

## CCCCC(=O)NC(=S)Nc1ccc(OC)cc1 [B]
Tyrosinase [1]
  IC50: 1.56 µM
Tyrosinase [1]; listed as compound B
  IC50: 5.4 µM

## Cn1cc[nH]c1=S [C, methimazole]
Tyrosinase [1]
  IC50: 114 µM

## CCOC(=O)C1=C(C)N=C2SC=C(C)N2C1c1ccccc1 (centres unmarked) [Compound 6a, Ethyl 3,7-dimethyl-5-phenyl-5H-thiazolo[3,2-a]pyrimidine-6-carboxylate]
[2]
  IC50: 28.5 µM
Tyrosinase [3]; Lineweaver-Burk plot, L-Dopa substrate
  type of inhibition: noncompetitive inhibitor; also recorded: noncompetitive mode of inhibition
Tyrosinase [3]; inhibitor concentration 5 µM
  Km: 690 µM
  Vmax: 22.22 mM/min
Tyrosinase [3]; inhibitor concentration 10 µM
  Km: 680 µM
  Vmax: 12.66 mM/min
Tyrosinase [3]; inhibitor concentration 25 µM
  Km: 650 µM
  Vmax: 10.35 mM/min
Tyrosinase [3]; inhibitor concentration 50 µM
  Km: 690 µM
  Vmax: 8.40 mM/min
Tyrosinase [3]; inhibitor concentration 100 µM
  Km: 660 µM
  Vmax: 5.15 mM/min
Tyrosinase [4]
  absorbance intensity (dopachrome formation): decreased dose-dependently
other
  melting point: 110 to 111 °C

## CCOC(=O)C1=C(C)N=C2SC=C(C)N2C1c1ccccc1F (centres unmarked) [Compound 6b, Ethyl 5-(2-fluorophenyl)-3,7-dimethyl-5H-thiazolo[3,2-a]pyrimidine-6-carboxylate]
[2]
  IC50: 40.8 µM
other
  melting point: 111 to 112 °C

## CCOC(=O)C1=C(C)N=C2SC=C(C)N2C1c1cccc(F)c1 (centres unmarked) [Compound 6c, Ethyl 5-(3-fluorophenyl)-3,7-dimethyl-5H-thiazolo[3,2-a]pyrimidine-6-carboxylate]
[2]
  IC50: 56 µM
other
  melting point: 113 to 114 °C

## CCOC(=O)C1=C(C)N=C2SC=C(C)N2C1c1ccccc1Cl (centres unmarked) [Compound 6d, Ethyl 5-(2-chlorophenyl)-3,7-dimethyl-5H-thiazolo[3,2-a]pyrimidine-6-carboxylate]
[2]
  IC50: 34.2 µM
other
  melting point: 114 to 115 °C

## CCOC(=O)C1=C(C)N=C2SC=C(C)N2C1c1ccc(Cl)cc1 (centres unmarked) [Compound 6e, Ethyl 5-(4-chlorophenyl)-3,7-dimethyl-5H-thiazolo[3,2-a]pyrimidine-6-carboxylate]
[2]
  IC50: 37.7 µM
other
  melting point: 113 to 114 °C

## CCOC(=O)C1=C(C)N=C2SC=C(C)N2C1c1cccc(Br)c1 (centres unmarked) [Compound 6f, Ethyl 5-(3-bromophenyl)-3,7-dimethyl-5H-thiazolo[3,2-a]pyrimidine-6-carboxylate]
[2]
  IC50: 85.3 µM
other
  melting point: 112 to 113 °C

## CCOC(=O)C1=C(C)N=C2SC=C(C)N2C1c1cccc([N+](=O)[O-])c1 (centres unmarked) [Compound 6g, Ethyl 3,7-dimethyl-5-(3-nitrophenyl)-5H-thiazolo[3,2-a]pyrimidine-6-carboxylate]
[2]
  IC50: 45.2 µM
other
  melting point: 151 to 152 °C

## CCOC(=O)C1=C(C)N=C2SC=C(C)N2C1c1ccc(C)cc1 (centres unmarked) [Compound 6h, Ethyl 3,7-dimethyl-5-(p-tolyl)-5H-thiazolo[3,2-a]pyrimidine-6-carboxylate]
[2]; SAR discussion
  tyrosinase inhibitory activity (in words): complete loss of activity
[2]
  IC50: > 250 µM
other
  melting point: 114 to 115 °C

## CCOC(=O)C1=C(C)N=C2SC=C(C)N2C1c1ccc(OC)cc1 (centres unmarked) [Compound 6i, Ethyl 5-(4-methoxyphenyl)-3,7-dimethyl-5H-thiazolo[3,2-a]pyrimidine-6-carboxylate]
[2]
  IC50: 35.7 µM
other
  melting point: 111 to 112 °C

## CCOC(=O)C1=C(C)N=C2SC=C(C)N2C1c1ccc(O)c(OC)c1 (centres unmarked) [Compound 6j, Ethyl 5-(4-hydroxy-3-methoxyphenyl)-3,7-dimethyl-5H-thiazolo[3,2-a]pyrimidine-6-carboxylate]
[2]
  IC50: 40.8 µM
other
  melting point: 121 to 122 °C

## Nc1nc(-c2ccc(O)cc2O)cs1 [Compound D]
Tyrosinase [1]
  IC50: 51 µM

## CC(C)C(=O)Nc1nc(-c2ccc(O)cc2O)cs1 [Compound E]
hTYR
  IC50: 1.1 µM
mTYR
  IC50: 108 µM

## CCOC(=O)C1=C(N)Oc2c(ccc3ccccc23)C1c1ccc(N(C)C)cc1 (centres unmarked) [F]
Tyrosinase [1]
  IC50: 34.1 µM

## NC(=S)N/N=C/c1cc(COC(=O)c2ccccc2)cs1 [G]
Tyrosinase [1]
  IC50: 0.068 µM
